Results as given in patent US5470849A, “γ-turn peptidomimetics as fibrinogen antagonists” (SmithKline Beecham Corp., priority 1993, dated 1995).

Legend:
dog platelets = assay: Inhibition of platelet aggregation (dog platelets, agonist-induced, Chrono-Log Lumi-Aggregometer); type: cell-based; conditions: Canis lupus familiaris, stimulated by ADP, between about
Description: (§1) Blood was collected (citrated to prevent coagulation) from, naive, adult mongrel dogs. Platelet rich plasma, PRP, was prepared by centrifugation at 150×g for 10 min at room temperature. Washed platelets were prepared by centrifuging PRP at 800×g for 10 min. The cell pellet thus obtained was washed twice in Tyrode's buffer (pH 6.5) without Ca^++ and resuspended in Tyrode's buffer (pH 7.4) containing 1.8 mM Ca^++ at 3×10^5 cells/mL. Peptides were added 3 min. prior to the agonist in all assays of platelet aggregation. Final agonist concentrations were 0.1 unit/mL thrombin and […] (Sigma). Aggregation was monitored in a Chrono-Log Lumi-Aggregometer. Light transmittance 5 min after addition of the agonist was used to calculate percent aggregation according to the formula % aggregation =[(90-CR)[…]]×100, where CR is the chart reading, 90 is the baseline, and 10 is the PRP blank reading. IC50 's were determined by plotting [% inhibition of aggregation] vs. [concentration of peptide]. Peptides were assayed at 200 μM and diluted sequentially by a factor of 2 to establish a suitable dose response curve.

[1] = Stability of the peptide to plasma proteases in platelet-rich plasma (3 h incubation prior to agonist); type: in vitro ADME, dog; conditions: up to 3 h
Description: as §1
To assess the stability of the peptide to plasma proteases, the peptides were incubated for 3 h (rather than 3 min) in the PRP prior to addition of the agonist.

Row | Structure (SMILES) | IC50 (dog platelets) | stability in platelet-rich plasma [1]
1 | CC(=O)N(C)[C@@H](CCCNC(=N)N)C(=O)NCC1=CC(CC(=O)O)C(=O)N(c2ccccc2)CC1 (stereo partly shown) [Example 2, 1-phenyl-2-oxo-3-carboxymethyl-5-[acetyl-(N-methylarginyl)-aminomethyl]-2,3,6,7-tetrahydro-1H-azepine] | 500 to 1500 nM | stable in platelet-rich plasma for up to 3 h
2 | CN(C(=O)c1ccccc1)[C@@H](CCCNC(=N)N)C(=O)NCC1=CC(CC(=O)O)C(=O)N(c2ccccc2)CC1 (stereo partly shown) [Example 1, 1-phenyl-2-oxo-3-carboxymethyl-5-[(N-benzoyl-N-methyl-arginylamino)methyl]-2,3,6,7-tetrahydro-1H-azepine] | 500 to 1500 nM | stable in platelet-rich plasma for up to 3 h
